Source: patent US12404262B2 (priority 2021, dated 2025)

Conditions: 1.0% DMSO, 24-hour incubation at ambient temperature, maximum theoretical 100 μM; for pH 2 solubility: 0.1N HCl, first value of the cell; for pH 7 solubility: 1×PBS buffer (pH 7.4), second value of the cell

| pH 2 solubility | pH 7 solubility | SMILES |
| --- | --- | --- |
| 1/1 μM | 1/1 μM | C[C@@H](OC(=O)N(c1nn(CC(F)(F)F)c2c(-c3ccc(C#CC(C)(C)S(C)(=O)=O)nc3[C@H](Cc3cc(F)cc(F)c3)NC(=O)Cn3nc(C(F)(F)F)c4c3C(F)(F)[C@@H]3C[C@H]43)ccc(Cl)c12)S(C)(=O)=O)C(=O)O [Compound 116, (R)-2-(((4-chloro-7-(2-((S)-1-(2-((3bS,4aR)-5,5-difluoro-3-(trifluoromethyl)-3b,4,4a,5-tetrahydro-1H-cyclopropa[3,4]cyclopenta[1,2-c]pyrazol-1-yl)acetamido)-2-(3,5-difluorophenyl)ethyl)-6-(3-methyl-3-(methylsulfonyl)but-1-yn-1-yl)pyridin-3-yl)-1-(2,2,2-trifluoroethyl)-1H-indazol-3-yl)(methylsulfonyl)carbamoyl)oxy)propanoic acid] |
| 1/1 μM | 1/1 μM | CCOC(=O)C(=O)N(c1nn(CC(F)(F)F)c2c(-c3ccc(C#CC(C)(C)S(C)(=O)=O)nc3[C@H](Cc3cc(F)cc(F)c3)NC(=O)Cn3nc(C(F)(F)F)c4c3C(F)(F)[C@@H]3C[C@H]43)ccc(Cl)c12)S(C)(=O)=O [Compound 14, ethyl 2-(N-(4-chloro-7-(2-((S)-1-(2-((3bS,4aR)-5,5-difluoro-3-(trifluoromethyl)-3b,4,4a,5-tetrahydro-1H-cyclopropa[3,4]cyclopenta[1,2-c]pyrazol-1-yl)acetamido)-2-(3,5-difluorophenyl)ethyl)-6-(3-methyl-3-(methylsulfonyl)but-1-yn-1-yl)pyridin-3-yl)-1-(2,2,2-trifluoroethyl)-1H-indazol-3-yl)methylsulfonamido)-2-oxoacetate] |
| 1 μM | 2 μM | CC(C)(CO)NC(=O)N(c1nn(CC(F)(F)F)c2c(-c3ccc(C#CC(C)(C)S(C)(=O)=O)nc3[C@H](Cc3cc(F)cc(F)c3)NC(=O)Cn3nc(C(F)(F)F)c4c3C(F)(F)[C@@H]3C[C@H]43)ccc(Cl)c12)S(C)(=O)=O [Compound 39, N—((S)-1-(3-(4-chloro-3-(N-((1-hydroxy-2-methylpropan-2-yl)carbamoyl)methylsulfonamido)-1-(2,2,2-trifluoroethyl)-1H-indazol-7-yl)-6-(3-methyl-3-(methylsulfonyl)but-1-yn-1-yl)pyridin-2-yl)-2-(3,5-difluorophenyl)ethyl)-2-((3bS,4aR)-5,5-difluoro-3-(trifluoromethyl)-3b,4,4a,5-tetrahydro-1H-cyclopropa[3,4]cyclopenta[1,2-c]pyrazol-1-yl)acetamide] |
| 2/2 μM | 2/2 μM | CC(C)(C#Cc1ccc(-c2ccc(Cl)c3c(N(C(=O)C(N)=O)S(C)(=O)=O)nn(CC(F)(F)F)c23)c([C@H](Cc2cc(F)cc(F)c2)NC(=O)Cn2nc(C(F)(F)F)c3c2C(F)(F)[C@@H]2C[C@H]32)n1)S(C)(=O)=O [Compound 10, N1-(4-chloro-7-(2-((S)-1-(2-((3bS,4aR)-5,5-difluoro-3-(trifluoromethyl)-3b,4,4a,5-tetrahydro-1H-cyclopropa[3,4]cyclopenta[1,2-c]pyrazol-1-yl)acetamido)-2-(3,5-difluorophenyl)ethyl)-6-(3-methyl-3-(methylsulfonyl)but-1-yn-1-yl)pyridin-3-yl)-1-(2,2,2-trifluoroethyl)-1H-indazol-3-yl)-N1-(methylsulfonyl)oxalamide] |
| 1 μM | 2 μM | CC(C)(C#Cc1ccc(-c2ccc(Cl)c3c(N(C(=O)NCCO)S(C)(=O)=O)nn(CC(F)(F)F)c23)c([C@H](Cc2cc(F)cc(F)c2)NC(=O)Cn2nc(C(F)(F)F)c3c2C(F)(F)[C@@H]2C[C@H]32)n1)S(C)(=O)=O [Compound 40, N—((S)-1-(3-(4-chloro-3-(N-((2-hydroxyethyl)carbamoyl)methylsulfonamido)-1-(2,2,2-trifluoroethyl)-1H-indazol-7-yl)-6-(3-methyl-3-(methylsulfonyl)but-1-yn-1-yl)pyridin-2-yl)-2-(3,5-difluorophenyl)ethyl)-2-((3bS,4aR)-5,5-difluoro-3-(trifluoromethyl)-3b,4,4a,5-tetrahydro-1H-cyclopropa[3,4]cyclopenta[1,2-c]pyrazol-1-yl)acetamide] |
| 1/1 μM | 1/1 μM | CC(C)(C#Cc1ccc(-c2ccc(Cl)c3c(N(C(=O)OCCO)S(C)(=O)=O)nn(CC(F)(F)F)c23)c([C@H](Cc2cc(F)cc(F)c2)NC(=O)Cn2nc(C(F)(F)F)c3c2C(F)(F)[C@@H]2C[C@H]32)n1)S(C)(=O)=O [Compound 99, 2-hydroxyethyl (4-chloro-7-(2-((S)-1-(2-((3bS,4aR)-5,5-difluoro-3-(trifluoromethyl)-3b,4,4a,5-tetrahydro-1H-cyclopropa[3,4]cyclopenta[1,2-c]pyrazol-1-yl)acetamido)-2-(3,5-difluorophenyl)ethyl)-6-(3-methyl-3-(methylsulfonyl)but-1-yn-1-yl)pyridin-3-yl)-1-(2,2,2-trifluoroethyl)-1H-indazol-3-yl)(methylsulfonyl)carbamate] |
| 6 μM | 16 μM | CC(C)(CNC(=O)N(c1nn(CC(F)(F)F)c2c(-c3ccc(C#CC(C)(C)S(C)(=O)=O)nc3[C@H](Cc3cc(F)cc(F)c3)NC(=O)Cn3nc(C(F)(F)F)c4c3C(F)(F)[C@@H]3C[C@H]43)ccc(Cl)c12)S(C)(=O)=O)OP(=O)(O)O [Compound 33, 1-(3-(4-chloro-7-(2-((S)-1-(2-((3bS,4aR)-5,5-difluoro-3-(trifluoromethyl)-3b,4,4a,5-tetrahydro-1H-cyclopropa[3,4]cyclopenta[1,2-c]pyrazol-1-yl)acetamido)-2-(3,5-difluorophenyl)ethyl)-6-(3-methyl-3-(methylsulfonyl)but-1-yn-1-yl)pyridin-3-yl)-1-(2,2,2-trifluoroethyl)-1H-indazol-3-yl)-3-(methylsulfonyl)ureido)-2-methylpropan-2-yl dihydrogen phosphate] |
| 1 μM | 100 μM | CC(C)(C#Cc1ccc(-c2ccc(Cl)c3c(N(CCOP(=O)(O)O)S(C)(=O)=O)nn(CC(F)(F)F)c23)c([C@H](Cc2cc(F)cc(F)c2)NC(=O)Cn2nc(C(F)(F)F)c3c2C(F)(F)[C@@H]2C[C@H]32)n1)S(C)(=O)=O [Compound 19, 2-(N-(4-chloro-7-(2-((S)-1-(2-((3bS,4aR)-5,5-difluoro-3-(trifluoromethyl)-3b,4,4a,5-tetrahydro-1H-cyclopropa[3,4]cyclopenta[1,2-c]pyrazol-1-yl)acetamido)-2-(3,5-difluorophenyl)ethyl)-6-(3-methyl-3-(methylsulfonyl)but-1-yn-1-yl)pyridin-3-yl)-1-(2,2,2-trifluoroethyl)-1H-indazol-3-yl)methylsulfonamido)ethyl dihydrogen phosphate] |
| 29 μM | 1 μM | CC(C)[C@H](N)C(=O)OCN(c1nn(CC(F)(F)F)c2c(-c3ccc(C#CC(C)(C)S(C)(=O)=O)nc3[C@H](Cc3cc(F)cc(F)c3)NC(=O)Cn3nc(C(F)(F)F)c4c3C(F)(F)[C@@H]3C[C@H]43)ccc(Cl)c12)S(C)(=O)=O [Compound 28, (N-(4-chloro-7-(2-((S)-1-(2-((3bS,4aR)-5,5-difluoro-3-(trifluoromethyl)-3b,4,4a,5-tetrahydro-1H-cyclopropa[3,4]cyclopenta[1,2-c]pyrazol-1-yl)acetamido)-2-(3,5-difluorophenyl)ethyl)-6-(3-methyl-3-(methylsulfonyl)but-1-yn-1-yl)pyridin-3-yl)-1-(2,2,2-trifluoroethyl)-1H-indazol-3-yl)methylsulfonamido)methyl L-valinate] |
| 39 μM | 9 μM | CC(C)(C#Cc1ccc(-c2ccc(Cl)c3c(N(C(=O)CCN4CCOCC4)S(C)(=O)=O)nn(CC(F)(F)F)c23)c([C@H](Cc2cc(F)cc(F)c2)NC(=O)Cn2nc(C(F)(F)F)c3c2C(F)(F)[C@@H]2C[C@H]32)n1)S(C)(=O)=O [Compound 5, N-(4-chloro-7-(2-((S)-1-(2-((3bS,4aR)-5,5-difluoro-3-(trifluoromethyl)-3b,4,4a,5-tetrahydro-1H-cyclopropa [3,4]cyclopenta [1,2-c]pyrazol-1-yl)acetamido)-2-(3,5-difluorophenyl)ethyl)-6-(3-methyl-3-(methylsulfonyl)but-1-yn-1-yl)pyridin-3-yl)-1-(2,2,2-trifluoroethyl)-1H-indazol-3-yl)-N-(methylsulfonyl)-3-morpholinopropanamide] |

| SMILES | pH 2 solubility | pH 7 solubility |
| --- | --- | --- |
| CN(C(=O)N(c1nn(CC(F)(F)F)c2c(-c3ccc(C#CC(C)(C)S(C)(=O)=O)nc3[C@H](Cc3cc(F)cc(F)c3)NC(=O)Cn3nc(C(F)(F)F)c4c3C(F)(F)[C@@H]3C[C@H]43)ccc(Cl)c12)S(C)(=O)=O)C(C)(C)C(=O)OCOP(=O)(O)O [Compound 85, (phosphonooxy)methyl 2-(3-(4-chloro-7-(2-((S)-1-(2-((3bS,4aR)-5,5-difluoro-3-(trifluoromethyl)-3b,4,4a,5-tetrahydro-1H-cyclopropa[3,4]cyclopenta[1,2-c]pyrazol-1-yl)acetamido)-2-(3,5-difluorophenyl)ethyl)-6-(3-methyl-3-(methylsulfonyl)but-1-yn-1-yl)pyridin-3-yl)-1-(2,2,2-trifluoroethyl)-1H-indazol-3-yl)-1-methyl-3-(methylsulfonyl)ureido)-2-methylpropanoate] | 5 μM | 65 μM |
| CC(C)(C#Cc1ccc(-c2ccc(Cl)c3c(N(C(=O)NCCCP(=O)(O)O)S(C)(=O)=O)nn(CC(F)(F)F)c23)c([C@H](Cc2cc(F)cc(F)c2)NC(=O)Cn2nc(C(F)(F)F)c3c2C(F)(F)[C@@H]2C[C@H]32)n1)S(C)(=O)=O [Compound 54-1, (3-(3-(4-chloro-7-(2-((S)-1-(2-((3bS,4aR)-5,5-difluoro-3-(trifluoromethyl)-3b,4,4a,5-tetrahydro-1H-cyclopropa[3,4]cyclopenta[1,2-c]pyrazol-1-yl)acetamido)-2-(3,5-difluorophenyl)ethyl)-6-(3-methyl-3-(methylsulfonyl)but-1-yn-1-yl)pyridin-3-yl)-1-(2,2,2-trifluoroethyl)-1H-indazol-3-yl)-3-(methylsulfonyl)ureido)propyl)phosphonic acid] | 1 μM | 14 μM |
